Data: patent publication US12239643B2, “Therapeutic agent for inflammatory diseases, autoimmune diseases, fibrotic diseases, and cancer diseases” (MEIJI SEIKA PHARMA CO., LTD., priority 2018, dated 2025)
Read-outs that look alike come from different tables or passages of the source.

Legend:
PDE4 = assay: Evaluation of PDE4 inhibitory activity, scintillation proximity assay; type: biochemical; conditions: scintillation proximity assay
Procedure, shortened: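 IC50 was derived from inhibition curves, referenced to an enzyme-free blank and a DMSO-only control. Compound, PDE4 preparation and tritiated cAMP reacted 120 min at RT in Tris-HCl buffer (pH 7.4) with MgCl2, EGTA and BSA; YSi-SPA beads with ZnSO4 bound product before scintillation counting.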

[1] = Hepatic metabolic stability (rat liver microsome method); type: in vitro ADME; conditions: rat liver microsomes 0.5 mg/mL, test substance 1 μM, NADPH 1 mM, 37° C., 30 minutes
Experimental: Metabolic stability in rat liver microsomes was evaluated by the following method. First, in 100 mM of potassium phosphate buffer solution (pH 7.4), liver microsomes (concentration at reaction: 0.5 mg/mL) and the test substance (concentration at reaction: 1 μM) were preincubated at 37° C. Five minutes later, 100 mM of potassium phosphate buffer (pH 7.4) solution of NADPH (concentration at reaction: 1 mM) was mixed thereto to start the reaction. After a predetermined time passed, acetonitrile was mixed to the reaction mixture to stop the reaction. Here, the reaction time was 0 and 30 minutes, and drug concentration measurement was performed for each time period using LC-MS. The % remaining value of the test compound was calculated from the value for 0 minutes and the value for 30 minutes, using the calculation formula below: % Remaining=(Value for 30 Minutes/Value for 0 Minutes)×100
The results of measuring the rat liver microsome metabolic Stability (% remaining for 30-minute reaction) for the test compound by the above method were evaluated in accordance with the following evaluated basis; A: a % remaining rate of 75% or more, B: 60% or more and less than 75%, C: 45% or more and less than 60%, and D: less than 45%.

[2] = read-out: PDE4 Inhibitory Activity (Evaluation 1; concentration for the inhibition rate of 50%)

SMILES	IC50 (PDE4; [2])	Residual ratio (% remaining for 30-minute reaction) [1]	IC50 (PDE4; class symbols of Evaluation 1, read-out: PDE4 Inhibitory Activity (concentration for the inhibition rate of 50%, IC50), Evaluation 1)
Cc1csc(-c2ccc(OC(F)(F)C(C)(C)O)c3nc(N4CC5CCC(C4)N5)oc23)n1 [Example 318, 1-((2-(3,8-Diazabicyclo[3.2.1]octan-3-yl)-7-(4-methylthiazol-2-yl)benzo[d]oxazol-4-yl)oxy)-1,1-difluoro-2-methylpropan-2-ol]	< 0.1 µM	B (B: 60% or more and less than 75%)	–
FC(F)(F)Oc1ccc(Oc2ccc(-c3nccs3)c3oc(N4CC5CC(C4)N5)nc23)nc1 [Example 343, 2-(3,6-Diazabicyclo[3.1.1]heptan-3-yl)-7-(thiazol-2-yl)-4-((5-(trifluoromethoxy)pyridin-2-yl)oxy)benzo[d]oxazole]	< 0.1 µM	B (B: 60% or more and less than 75%)	–
COCCNS(=O)(=O)c1ccc(-c2nccs2)c2oc(N3CC4CC(C3)N4)nc12 [Example 387, 2-(3,6-Diazabicyclo[3.1.1]heptan-3-yl)-N-(2-methoxyethyl)-7-(thiazol-2-yl)benzo[d]oxazole-4-sulfonamide]	< 0.1 µM	A (A: a % remaining rate of 75% or more)	–
O=S(=O)(CCO)c1ccc(-c2nccs2)c2oc(N3CC4CC(C3)N4)nc12 [Example 350, 2-((2-(3,6-Diazabicyclo[3.1.1]heptan-3-yl)-7-(thiazol-2-yl)benzo[d]oxazol-4-yl)sulfonyl)ethan-1-ol]	< 0.1 µM	A (A: a % remaining rate of 75% or more)	–
Fc1ccc(-c2cc(Cl)c(OC(F)(F)F)c3nc(N4CC5CCC(C4)N5)oc23)nc1 [Example 10, 2-(3,8-Diazabicyclo[3.2.1]octan-3-yl)-5-chloro-7-(5-fluoropyridin-2-yl)-4-(trifluoromethoxy)benzo[d]oxazole]	–	A (A: a % remaining rate of 75% or more)	< 0.1 µM
FC(F)(F)c1ccc(Oc2cc(-c3nccs3)c3oc(N4CC5CC(C4)N5)nc3c2)nc1 [Example 413, 2-(3,6-Diazabicyclo[3.1.1]heptan-3-yl)-7-(thiazol-2-yl)-5-((5-(trifluoromethyl)pyridin-2-yl)oxy)benzo[d]oxazole]	< 0.1 µM	A (A: a % remaining rate of 75% or more)	–
CCNC(=O)c1ccc(-c2nccs2)c2oc(N3CC4CC(C3)N4)nc12 [Example 358, 2-(3,6-Diazabicyclo[3.1.1]heptan-3-yl)-N-ethyl-7-(thiazol-2-yl)benzo[d]oxazole-4-carboxamide]	< 0.1 µM	A (A: a % remaining rate of 75% or more)	–
CC(O)(CO)C(F)(F)Oc1ccc(-c2nccs2)c2oc(N3CC4CC(C3)N4)nc12 (single isomer, unassigned) [Example 365, 3-((2-(3,6-Diazabicyclo[3.1.1]heptan-3-yl)-7-(thiazol-2-yl)benzo[d]oxazol-4-yl)oxy)-3,3-difluoro-2-methylpropane-1,2-diol]	< 0.1 µM	A (A: a % remaining rate of 75% or more)	–
CC(C)(O)C(F)(F)Oc1ccc(-n2cccn2)c2oc(N3CC4CCC(C3)N4)nc12 [Example 316, 1-((2-(3,8-Diazabicyclo[3.2.1]octan-3-yl)-7-(1H-pyrazol-1-yl)benzo[d]oxazol-4-yl)oxy)-1,1-difluoro-2-methylpropan-2-ol]	< 0.1 µM	A (A: a % remaining rate of 75% or more)	–
O=S(=O)(NCCO)c1ccc(-c2nccs2)c2oc(N3CC4CC(C3)N4)nc12 [Example 385, 2-(3,6-Diazabicyclo[3.1.1]heptan-3-yl)-N-(2-hydroxyethyl)-7-(thiazol-2-yl)benzo[d]oxazole-4-sulfonamide]	< 0.1 µM	A (A: a % remaining rate of 75% or more)	–
Cn1ccc(-c2ccc(OC(F)(F)C(C)(C)O)c3nc(N4CC5CC(C4)N5)oc23)n1 [Example 394, 1-((2-(3,6-Diazabicyclo[3.1.1]heptan-3-yl)-7-(1-methyl-1H-pyrazol-3-yl)benzo[d]oxazol-4-yl)oxy)-1,1-difluoro-2-methylpropan-2-ol]	0.1 to 1 µM	A (A: a % remaining rate of 75% or more)	–
CC(O)C(F)(F)Oc1ccc(-c2nccs2)c2oc(N3CC4CC(C3)N4O)nc12 (single isomer, unassigned) [Example 373, 3-(4-(1,1-Difluoro-2-hydroxypropoxy)-7-(thiazol-2-yl)benzo[d]oxazol-2-yl)-3,6-diazabicyclo[3.1.1]heptan-6-ol]	< 0.1 µM	B (B: 60% or more and less than 75%)	–
OC1CC(Oc2ccc(-c3nccs3)c3oc(N4CC5CC(C4)N5)nc23)C1 (stereo not drawn) [Example 285, 3-((2-(3,6-Diazabicyclo[3.1.1]heptan-3-yl)-7-(thiazol-2-yl)benzo[d]oxazol-4-yl)oxy)cyclobutan-1-ol]	< 0.1 µM	A (A: a % remaining rate of 75% or more)	–
O=C(N1CC(O)C1)C(F)(F)Oc1ccc(-c2nccs2)c2oc(N3CC4CC(C3)N4)nc12 [Example 412, 2-((2-(3,6-Diazabicyclo[3.1.1]heptan-3-yl)-7-(thiazol-2-yl)benzo[d]oxazol-4-yl)oxy)-2,2-difluoro-1-(3-hydroxyazetidin-1-yl)ethan-1-one]	< 0.1 µM	A (A: a % remaining rate of 75% or more)	–
c1cnc(Oc2ccc(-c3nccs3)c3oc(N4CC5CC(C4)N5)nc23)cn1 [Example 339, 2-(3,6-Diazabicyclo[3.1.1]heptan-3-yl)-4-(pyrazin-2-yloxy)-7-(thiazol-2-yl)benzo[d]oxazole]	< 0.1 µM	B (B: 60% or more and less than 75%)	–
CC(C)(O)C(F)(F)Oc1ccc(-n2cccn2)c2oc(N3CC4CC(C3)N4)nc12 [Example 304, 1-((2-(3,6-Diazabicyclo[3.1.1]heptan-3-yl)-7-(1H-pyrazol-1-yl)benzo[d]oxazol-4-yl)oxy)-1,1-difluoro-2-methylpropan-2-ol]	< 0.1 µM	A (A: a % remaining rate of 75% or more)	–
CC(C)(O)C(F)(F)Oc1ccc(-c2ccsn2)c2oc(N3CC4CCC(C3)N4)nc12 [Example 331, 1-((2-(3,8-Diazabicyclo[3.2.1]octan-3-yl)-7-(isothiazol-3-yl)benzo[d]oxazol-4-yl)oxy)-1,1-difluoro-2-methylpropan-2-ol]	< 0.1 µM	B (B: 60% or more and less than 75%)	–
c1cnc(Oc2ccc(-c3nccs3)c3oc(N4CC5CC(C4)N5)nc23)nc1 [Example 338, 2-(3,6-Diazabicyclo[3.1.1]heptan-3-yl)-4-(pyrimidin-2-yloxy)-7-(thiazol-2-yl)benzo[d]oxazole]	< 0.1 µM	A (A: a % remaining rate of 75% or more)	–
N#Cc1ccc(-c2nccs2)c2oc(N3CC4CC(C3)N4)nc12 [Example 335, 2-(3,6-Diazabicyclo[3.1.1]heptan-3-yl)-7-(thiazol-2-yl)benzo[d]oxazole-4-carbonitrile]	< 0.1 µM	A (A: a % remaining rate of 75% or more)	–
CC(C)(O)C(F)(F)Oc1ccc(-c2ccccn2)c2oc(N3CC4CCC(C3)N4)nc12 [Example 317, 1-((2-(3,8-Diazabicyclo[3.2.1]octan-3-yl)-7-(pyridin-2-yl)benzo[d]oxazol-4-yl)oxy)-1,1-difluoro-2-methylpropan-2-ol]	< 0.1 µM	A (A: a % remaining rate of 75% or more)	–
COCC(F)(F)Oc1ccc(-c2nccs2)c2oc(N3CC4CC(C3)N4)nc12 [Example 392, 2-(3,6-Diazabicyclo[3.1.1]heptan-3-yl)-4-(1,1-difluoro-2-methoxyethoxy)-7-(thiazol-2-yl)benzo[d]oxazole]	< 0.1 µM	B (B: 60% or more and less than 75%)	–
CC(O)(CO)C(F)(F)Oc1ccc(-c2nccs2)c2oc(N3CC4CC(C3)N4)nc12 (racemic) [Example 326, 3-((2-(3,6-Diazabicyclo[3.1.1]heptan-3-yl)-7-(thiazol-2-yl)benzo[d]oxazol-4-yl)oxy)-3,3-difluoro-2-methylpropane-1,2-diol]	< 0.1 µM	A (A: a % remaining rate of 75% or more)	–
Cc1nsc(-c2ccc(OC(F)(F)C(C)(C)O)c3nc(N4CC5CCC(C4)N5)oc23)n1 [Example 333, 1-((2-(3,8-Diazabicyclo[3.2.1]octan-3-yl)-7-(3-methyl-1,2,4-thiadiazol-5-yl)benzo[d]oxazol-4-yl)oxy)-1,1-difluoro-2-methylpropan-2-ol]	0.1 to 1 µM	B (B: 60% or more and less than 75%)	–
CC(C)(O)C(F)(F)Oc1ccc(-c2ccc(F)cn2)c2oc(N3CC4CC(C3)N4)nc12 [Example 329, 1-((2-(3,6-Diazabicyclo[3.1.1]heptan-3-yl)-7-(5-fluoropyridin-2-yl)benzo[d]oxazol-4-yl)oxy)-1,1-difluoro-2-methylpropan-2-ol]	< 0.1 µM	A (A: a % remaining rate of 75% or more)	–
